Legend:
[1] = Cell membrane permeability (A to B / B to A, efflux ratio); assay type: in vitro ADME
Protocol: The test compounds were diluted from 10 mM stock solutions to a concentration of 10 μM using the transport buffer (HBSS+BSA) and applied to the apical or basolateral side of the cell monolayer. After the incubation at 37° C., 5% CO2 and 95% relative humidity for 120 minutes, the permeability of the test compounds in the A to B direction or the B to A direction was tested in duplicate. In addition, the efflux ratio of each compound was determined. The test substances and reference substances were quantitatively analyzed by the LC-MS/MS method based on the analyte/IS peak area ratio.

CYP2C19 = molecular target: T1, CYP2C19 (Homo sapiens, UniProt P33261); experiment: P450 enzyme inhibition, CYP2C19; assay type: in vitro ADME; details: human liver microsome, substrate Mephenytoin
T1 construct: A phosphate buffer solution of liver microsomes was prepared; from tissue; host or cells: human liver microsomes
Protocol: (§1) A phosphate buffer solution of liver microsomes was prepared. 169 μL of the phosphate buffer solution of liver microsomes and 1 μL of working solutions of various concentrations of test compounds or positive control compounds were added to a 96-well plate. The culture plate was placed in a water bath and pre-heated at 37° C. for 15 minutes. After the incubation, 10 μL of substrates were added to the culture plate (1 μL of substrates and 9 μL of the K-Mg buffer solution were added to the plate for CYP3A4-T). The incubation mixture was mixed on a rotating mixer for 10 seconds, and then 20 μL of a 10 mM NADPH solution was added to start the reaction at a final concentration of 1 mM. The experiment was repeated twice. At the predetermined time points listed in Table 4, the reaction was quenched by adding 400 μL of the quenching solution (cold ACN containing 500 nM mephetedrine and 10 nM terfenadine). Centrifugation was performed at 3220 g for 50 minutes at 4° C. 100 μl of the supernatant was transferred to a new plate. The supernatant was diluted with 100 μL of pure water. The mixture was mixed evenly, and the sample was analyzed by UPLC-MS/MS.

CYP2D6 = molecular target: T2, CYP2D6 (Homo sapiens, UniProt P10635); experiment: P450 enzyme inhibition, CYP2D6; assay type: in vitro ADME; details: human liver microsome, substrate Dextromethorphan
T2 construct: A phosphate buffer solution of liver microsomes was prepared; from tissue; host or cells: human liver microsomes
Protocol: as §1

CYP1A2 = molecular target: T3, CYP1A2 (Homo sapiens, UniProt P05177); experiment: P450 enzyme inhibition, CYP1A2; assay type: in vitro ADME; details: human liver microsome, substrate Phenacetin
T3 construct: A phosphate buffer solution of liver microsomes was prepared; from tissue; host or cells: human liver microsomes
T3 sequence (P05177 1-516): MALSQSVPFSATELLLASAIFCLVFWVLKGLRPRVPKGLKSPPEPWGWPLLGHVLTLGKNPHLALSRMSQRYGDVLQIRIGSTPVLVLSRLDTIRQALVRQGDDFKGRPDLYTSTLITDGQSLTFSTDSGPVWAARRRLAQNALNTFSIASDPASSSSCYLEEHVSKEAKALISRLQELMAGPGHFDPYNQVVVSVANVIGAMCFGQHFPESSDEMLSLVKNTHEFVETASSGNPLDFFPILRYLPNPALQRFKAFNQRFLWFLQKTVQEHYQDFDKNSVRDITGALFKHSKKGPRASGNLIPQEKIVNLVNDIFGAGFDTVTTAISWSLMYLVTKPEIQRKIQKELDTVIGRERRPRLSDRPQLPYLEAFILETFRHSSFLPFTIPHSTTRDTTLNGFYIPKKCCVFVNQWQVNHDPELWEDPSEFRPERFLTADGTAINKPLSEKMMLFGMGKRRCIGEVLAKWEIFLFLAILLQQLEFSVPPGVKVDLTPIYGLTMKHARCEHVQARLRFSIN
Protocol: as §1

[2] = Kinetic solubility evaluation; assay type: physicochemical; details: kinetic from dmso stock, 37° C.
Protocol: The test compounds were dissolved in DMSO to prepare 10 mM stock solutions. 8.71 g of K2HPO4 was added to 500 mL of deionized water to prepare a 100 mM K2HPO4 solution. 2.05 g of potassium dihydrogen phosphate was added to 150 ml of deionized water to prepare a 100 mM potassium dihydrogen phosphate solution. 405 mL of 100 mM K2HPO4 and 95 mL of 100 mM KH2PO4 were mixed, and the mixed solution was adjusted to pH 7.4 by a 100 mM K2HPO4/KH2PO4 solution. 10.41 g of FaSSIF buffer concentrate was added to 240.3 g of deionized water to prepare a buffer solution (fasted-state simulated intestinal fluid, pH=6.5). 4.071 g of FeSSIF buffer concentrate was added to 45.97 g of deionized water to prepare a buffer solution (fed-state simulated intestinal fluid, pH=5.0).
[…] (for PBS) or 37° C. (for others). After the incubation, the solution was transferred to a filter plate. All samples were filtered. 5 μL of the filtrate was added to 5 μL of DMSO, and 490 μl of an aqueous acetonitrile solution containing the internal standard (1:1), and the mixture was mixed evenly. Based on the properties of the compound and its response in mass spectrometry, dilution with an aqueous acetonitrile solution containing the internal standard (1:1) was performed. The dilution factor was varied according to the solubility value and UPLC-MS/MS signal response.

CYP3A4 = molecular target: T4, CYP3A4 (Homo sapiens, UniProt P08684); experiment: P450 enzyme inhibition, CYP3A4; assay type: in vitro ADME; details: human liver microsome, substrate Testosterone
T4 construct: A phosphate buffer solution of liver microsomes was prepared; from tissue; host or cells: human liver microsomes
Protocol: as §1

[3] = In vitro liver microsome stability; assay type: in vitro ADME; details: liver microsomes, NADPH, 37° C.
Protocol: A 5 mM MgCl2 100 mM K-Mg buffer solution was pre-heated. 5 μL of a 10 mM compound and a reference stock solution were added to 95 μL of acetonitrile (ACN) to prepare a spiked solution. 1.5 μL of a 500 µM spiked solution and 18.75 μL of 20 mg/mL liver microsomes were added to 479.8 μL of the K-Mg buffer solution. NADPH was dissolved in the K-Mg-buffer solution to prepare an NADPH stock solution ([…]). At different time points (0, 5, 15, 30 and 45 minutes), 30 μL of a 1.5 μM spiked solution containing the microsomes was evenly dropped into an assay plate. The plate was preincubated at 37° C. for 5 minutes. At 0 min, 200 μL of ACN containing IS (internal standard, tolbutamid/terfenadine) was added to the wells, and then 15 μl of the NADPH stock solution (6 mM) was added. For other time points, 15 μL of the NADPH stock solution (6 mM) was added to the wells to initiate the reaction and start the timing. At 5, 15, 30 and 45 min, the reaction was stopped by adding 200 μL of ACN containing IS to the corresponding wells of the plate. After quenching, the plate was shaken at 600 rpm for 10 minutes and then centrifuged at 4000 rpm for 50 minutes. 80 μL of the supernatant from each well was transferred to a 96-well sample plate containing 160 μL of pure water for UPLC/MS/MS analysis.

T2 sequence (P10635 whole entry): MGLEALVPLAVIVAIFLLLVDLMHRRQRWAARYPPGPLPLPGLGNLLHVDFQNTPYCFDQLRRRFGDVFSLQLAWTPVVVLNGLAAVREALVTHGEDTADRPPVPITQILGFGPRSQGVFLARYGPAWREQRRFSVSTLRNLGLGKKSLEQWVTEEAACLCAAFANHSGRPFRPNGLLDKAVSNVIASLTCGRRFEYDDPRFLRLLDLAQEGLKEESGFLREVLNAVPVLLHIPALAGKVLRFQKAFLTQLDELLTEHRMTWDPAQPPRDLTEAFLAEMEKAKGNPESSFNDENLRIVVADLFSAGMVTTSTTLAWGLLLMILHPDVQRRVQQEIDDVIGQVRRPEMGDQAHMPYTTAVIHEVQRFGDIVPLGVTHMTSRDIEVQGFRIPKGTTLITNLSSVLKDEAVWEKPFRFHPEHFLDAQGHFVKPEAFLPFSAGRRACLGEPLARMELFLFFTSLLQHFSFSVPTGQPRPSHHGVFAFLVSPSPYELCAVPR
T1 sequence (P33261 whole entry): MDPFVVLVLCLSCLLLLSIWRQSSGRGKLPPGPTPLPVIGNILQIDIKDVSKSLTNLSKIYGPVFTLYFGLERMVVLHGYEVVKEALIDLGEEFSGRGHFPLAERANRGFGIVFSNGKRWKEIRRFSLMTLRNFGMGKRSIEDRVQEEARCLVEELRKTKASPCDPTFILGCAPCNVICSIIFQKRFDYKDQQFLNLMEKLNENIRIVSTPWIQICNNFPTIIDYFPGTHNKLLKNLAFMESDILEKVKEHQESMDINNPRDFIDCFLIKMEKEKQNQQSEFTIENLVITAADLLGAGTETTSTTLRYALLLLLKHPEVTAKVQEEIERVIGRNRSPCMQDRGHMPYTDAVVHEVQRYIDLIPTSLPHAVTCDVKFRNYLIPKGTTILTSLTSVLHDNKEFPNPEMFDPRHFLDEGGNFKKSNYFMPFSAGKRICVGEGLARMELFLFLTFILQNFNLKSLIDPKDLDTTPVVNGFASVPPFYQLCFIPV
T4 sequence (P08684 whole entry): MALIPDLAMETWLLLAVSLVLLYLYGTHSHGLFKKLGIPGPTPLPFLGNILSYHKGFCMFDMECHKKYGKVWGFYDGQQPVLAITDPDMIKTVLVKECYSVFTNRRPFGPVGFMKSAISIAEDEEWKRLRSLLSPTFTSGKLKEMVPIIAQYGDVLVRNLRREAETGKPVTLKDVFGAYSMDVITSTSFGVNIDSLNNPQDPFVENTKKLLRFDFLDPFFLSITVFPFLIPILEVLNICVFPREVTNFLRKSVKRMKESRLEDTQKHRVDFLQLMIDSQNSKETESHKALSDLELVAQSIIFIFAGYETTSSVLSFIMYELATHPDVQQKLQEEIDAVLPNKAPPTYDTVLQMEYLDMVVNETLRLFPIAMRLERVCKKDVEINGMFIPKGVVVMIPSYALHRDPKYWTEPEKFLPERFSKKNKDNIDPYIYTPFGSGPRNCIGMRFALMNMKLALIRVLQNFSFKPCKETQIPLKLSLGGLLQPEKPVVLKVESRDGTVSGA

Question: Which efflux ratio at 120 min, 10 µM [1] does the source give for `O=C(COc1ccc(Cl)c(F)c1)N[C@H]1CC[C@H](c2nnc(N3CC(OC(F)(F)F)C3)o2)CC1` [Compound 6] here?
Answer: 0.71

Question: And the Papp A→B at 120 min, 10 µM ([1]; 37° C.)?
Answer: 25.8 ×10⁻⁶ cm/s

Question: And the Papp B→A at 120 min, 10 µM ([1]; 37° C.)?
Answer: 18.4 ×10⁻⁶ cm/s

Question: And the IC50 (CYP2C19)?
Answer: > 10 µM

Question: And the IC50 (CYP2D6)?
Answer: > 30 µM

Question: And the IC50 (CYP1A2)?
Answer: > 10 µM

Question: What about the solubility at 1.5 h ([2]; FaSSIF buffer (fasted-state simulated intestinal fluid), fassif, fasted-state simulated intestinal fluid (pH=6.5)) of the same compound?
Answer: > 10 µg/mL

Question: And the solubility at 1.5 h ([2]; FeSSIF buffer (fed-state simulated intestinal fluid), fessif, fed-state simulated intestinal fluid (pH=5.0))?
Answer: > 80 µg/mL

Question: What about the IC50 (CYP3A4) of the same compound?
Answer: > 30 µM

Question: And the half-life at 1 µM [3]?
Answer: > 1.5 h

From patent publication US12612392B2, “Compound, pharmaceutical compositions containing same, synthesis method therefor and use thereof” (SHENZHEN ZHONGGE BIOLOGICAL TECHNOLOGY CO., LTD., priority 2022, dated 2026)
